Test: IV study in dogs: plasma insulin and glucose after IV injection of human insulin
Type: in vivo, Mongrel dogs
Procedure: Oral bioavailability of insulin composition was determined using an IV study followed by an oral crossover study and the relative areas of under the curve, plasma half life, Cmax, and Tmax was calculated. […] Following data collection, plasma concentration, plasma half-life, peak concentration (Cmax) and time to reach Cmax (tmax) were determined. From the areas under the curve, percent oral bioavailability was determined.

[1] = dog #71, IV 0.01 mg/kg, 120 min
[2] = dog #71, IV 0.01 mg/kg, 180 min
[3] = dog #71, IV 0.01 mg/kg, 240 min
[4] = dog #72, IV 0.01 mg/kg, 120 min
[5] = dog #72, IV 0.01 mg/kg, 180 min
[6] = dog #72, IV 0.01 mg/kg, 240 min

## human insulin: human insulin given by IV injection (0.01 mg/kg) as reference in the dog study
Dog #71, IV 0.01 mg/kg, 2 min
  Plasma Glucose: 89 mg/dL
  Plasma Insulin: 50.2 ng/mL
Dog #71, IV 0.01 mg/kg, 5 min
  Plasma Glucose: 82 mg/dL
  Plasma Insulin: 26.6 ng/mL
Dog #71, IV 0.01 mg/kg, 10 min
  Plasma Glucose: 57 mg/dL
Dog #71, IV 0.01 mg/kg, 15 min
  Plasma Glucose: 46 mg/dL
  Plasma Insulin: 10.1 ng/mL
Dog #71, IV 0.01 mg/kg, 20 min
  Plasma Glucose: 41 mg/dL
Dog #71, IV 0.01 mg/kg, 25 min
  Plasma Glucose: 42 mg/dL
  Plasma Insulin: 5.9 ng/mL
Dog #71, IV 0.01 mg/kg, 40 min
  Plasma Glucose: 39 mg/dL
Dog #71, IV 0.01 mg/kg, 60 min
  Plasma Glucose: 48 mg/dL
[1]
  Plasma Glucose: 69 mg/dL
  Plasma Insulin: 0.19 ng/mL
[2]
  Plasma Glucose: 87 mg/dL
  Plasma Insulin: 0.08 ng/mL
[3]
  Plasma Glucose: 86 mg/dL
  Plasma Insulin: 0.08 ng/mL
Dog #72, IV 0.01 mg/kg, 2 min
  Plasma Glucose: 89 mg/dL
  Plasma Insulin: 27.3 ng/mL
Dog #72, IV 0.01 mg/kg, 5 min
  Plasma Glucose: 60 mg/dL
  Plasma Insulin: 21.4 ng/mL
Dog #72, IV 0.01 mg/kg, 10 min
  Plasma Glucose: 31 mg/dL
Dog #72, IV 0.01 mg/kg, 15 min
  Plasma Glucose: 28 mg/dL
Dog #72, IV 0.01 mg/kg, 20 min
  Plasma Glucose: 35 mg/dL
  Plasma Insulin: 3.4 ng/mL
Dog #72, IV 0.01 mg/kg, 25 min
  Plasma Glucose: 24 mg/dL
Dog #72, IV 0.01 mg/kg, 40 min
  Plasma Glucose: 21 mg/dL
  Plasma Insulin: 0.7 ng/mL
Dog #72, IV 0.01 mg/kg, 60 min
  Plasma Glucose: 33 mg/dL
  Plasma Insulin: 0.2 ng/mL
[4]
  Plasma Glucose: 68 mg/dL
  Plasma Insulin: 0.04 ng/mL
[5]
  Plasma Glucose: 102 mg/dL
  Plasma Insulin: 0 ng/mL
[6]
  Plasma Glucose: 99 mg/dL
  Plasma Insulin: 0.04 ng/mL

— patent US8414914B2, “Compositions for mucosal delivery of agents” (Virun, Inc., priority 2004, dated 2013)
